According to patent US11154530B2, “Pharmaceutical composition for treating liver cancer, comprising tetraarsenic hexoxide crystalline polymorph” (CHEMAS CO., LTD., priority 2016, dated 2021):

Columns and labels:
[1] = system: human liver cancer cell line SMMC-7721 cells; test: In vivo efficacy test in mice transplanted with SMMC-7721 cells; details: for Cancer weight: babl/c-nu mice with SMMC-7721 cells; for Percentage (%) of inhibition of cancer growth: from cancer weight vs cancer model group
Protocol: (§1) Human liver cancer cell line SMMC-7721 cells (purchased from the Shanghai Cell Bank of Chinese Academy of Sciences) were incubated in RPMI-1640 medium supplemented with 10% FBS, 50 U/ml penicillin, and 50 μg/ml streptomycin in an incubator under conditions of 37° C., 5% CO2, and 95% air. The medium was exchanged every three days.
(§2) The mice were allowed free access to food and water, and were bred in a 12-hr light/12-hr dark cycle.
The twenty five mice were subcutaneously inoculated into the neck site with SMMC-7721 cells at 2×10^7 cells per mouse, and bred for 7 days. […] 5-Fluorouracil (5-FU), which is used as an anticancer drug, was treated for a positive control group.
Cancer tissues were isolated from the mice after seven days of administration of the drug for each group, and visually observed. Cancer weights were measured. In addition, the inhibition of cancer growth was calculated on the basis of the measured weights of the cancer tissues by using the following equation. Percentage of inhibition of cancer growth=(1−(sample treatment group/cancer model group))×100

[2] = system: human liver cancer cell line H22 cells; test: In vivo efficacy test in mice transplanted with H22 cells; details: from cancer volume vs cancer model group
Protocol: as §1, with “H22” for “SMMC-7721”, “100” for “50”
as §2
(§3) Out of the 50 mice, 10 mice were classified as the normal group, and the remaining 40 animals were subcutaneously inoculated with H22 cells at 1×10^7 cells per mouse, and bred for 7 days. […] 5-Fluorouracil (5-FU), which is used as an anticancer drug, was treated for a positive control group.
(§4) After the administration of the drug for each group, cancer sizes were measured daily using a Vernier caliper, and cancer volumes were calculated using the equation V=0.5×ab^2 (a is the longest diameter of cancer and b is the shortest diameter of cancer). In addition, the inhibition of cancer volume according to the number of days of administration was calculated by the following equation. Percentage of inhibition of cancer growth=(1−(sample treatment group/cancer model group))×100

[3] = as above; details: ICR mice with H22 cells
Protocol: as §1, with “H22” for “SMMC-7721”, “100” for “50”
as §2, §3, §4

[4] = system: human liver cancer cells HCCLM3; test: MTT cell proliferation assay, HCCLM3 cells; format: cell-based
Protocol: (§5) Fetal bovine serum (FBS) and cell culture medium were prepared (Hyclone), and dimethyl sulfoxide (DMSO) and 3-(4,5-dimethyl-thiazol-2yl)-2,5-diphenyltetrazolium bromide (MTT, Amresco LLC, USC) were prepared.
(§6) As human cancer cell lines, human liver cancer cells SMMC-7721 and HCCLM3 were obtained from the Shanghai Cell Bank of Chinese Academy of Sciences. The SMMC-7721 cells were incubated in RPMI-1640 medium supplemented with 10% FBS, 50 U/ml penicillin, and 50 μg/ml streptomycin and the HCCLM3 cells were incubated in Dulbecco's modified Eagle's medium (DMEM) supplemented with 10% FBS, 100 U/ml penicillin, and 100 μg/ml streptomycin in a humidified incubator with 5% CO2 and 95% air. […]
(§7) The effects of Example 1 and Comparative Examples 1 to 3 on cell proliferation were assessed using MTT assay. […] All the crystals were completely dissolved by standing at room temperature for 15 minutes, and the absorbance was measured using a micro-plate reader at a wavelength of 570 nm (A570nm).
(§8) The absorbance value of the control group treated without the sample was calculated as 100, and the absorbance value of the treatment group treated with the sample, compared with that of the control group, was calibrated, and the percentage of inhibition of cell proliferation was calculated according to the following equation. […]
(§9) All data were expressed as mean±standard error of the mean (mean±SEM). […]

[5] = system: human liver cancer cells SMMC-7721; test: MTT cell proliferation assay, SMMC-7721 cells; format: cell-based
Protocol: as §5, §6, §7, §8, §9

[6] = Positive control group, 20 mg/kg oral daily for 7 days
[7] = Positive control group, 20 mg/kg oral daily, 5 days
[8] = Positive control group, 20 mg/kg oral daily, 7 days
[9] = Positive control group, 20 mg/kg oral daily, 9 days
[10] = Positive control group, 20 mg/kg oral daily, 11 days
[11] = Test Group 1, 4.5 mg/kg oral daily for 7 days
[12] = Test Group 2, 2.25 mg/kg oral daily for 7 days
[13] = Test Group 3, 1.125 mg/kg oral daily for 7 days
[14] = Test Group 1, 4.5 mg/kg oral daily, 5 days
[15] = Test Group 1, 4.5 mg/kg oral daily, 7 days
[16] = Test Group 1, 4.5 mg/kg oral daily, 9 days
[17] = Test Group 1, 4.5 mg/kg oral daily, 11 days
[18] = Test Group 2, 2.25 mg/kg oral daily, 5 days
[19] = Test Group 2, 2.25 mg/kg oral daily, 7 days
[20] = Test Group 2, 2.25 mg/kg oral daily, 9 days
[21] = Test Group 2, 2.25 mg/kg oral daily, 11 days

Compound: O=c1[nH]cc(F)c(=O)[nH]1 [5-Fluorouracil, reference compound]
- Cancer weight [1, 6]: 0.72 ± 0.27 g
- Percentage (%) of inhibition of cancer growth [1, 6]: 32.5%
- Percentage (%) of inhibition of cancer growth [2, 7]: 26.16%
- Percentage (%) of inhibition of cancer growth [2, 8]: 46.73%
- Percentage (%) of inhibition of cancer growth [2, 9]: 52.15%
- Percentage (%) of inhibition of cancer growth [2, 10]: 63.48%
- Cancer volume according to number of days of administration [3, 7]: 165.62 mm^3
- Cancer volume according to number of days of administration [3, 8]: 212.78 mm^3
- Cancer volume according to number of days of administration [3, 9]: 318.07 mm^3
- Cancer volume according to number of days of administration [3, 10]: 661.97 mm^3

Compound: tetraarsenic hexoxide [Example 1]
- Percentage of inhibition of HCCLM3 cell proliferation compared with Comparative Example 1 ([4]; incubation for 48 hours and 72 hours, 0.625-80 μM, FIGS. 3A-B): higher
- Percentage of inhibition of HCCLM3 cell proliferation compared with Comparative Example 2 or 3 ([4]; mixtures of Example 1 and Comparative Example 1 at 4:1 or 1:1, FIGS. 3A-B): higher
- Cancer weight [1, 11]: 0.65 ± 0.17 g
- Percentage (%) of inhibition of cancer growth [1, 11]: 39.7%
- Cancer weight [1, 12]: 0.70 ± 0.10 g
- Percentage (%) of inhibition of cancer growth [1, 12]: 34.3%
- Cancer weight [1, 13]: 0.77 ± 0.12 g
- Percentage (%) of inhibition of cancer growth [1, 13]: 28.0%
- Tumor tissue sizes (visual observation) ([1]; isolated cancer tissues after 7 days of oral administration, FIG. 6): reduced
- Percentage of inhibition of SMMC-7721 cell proliferation compared with Comparative Example 1 ([5]; incubation for 48 hours and 72 hours, 0.625-80 μM, FIGS. 2A-B): higher
- Percentage of inhibition of SMMC-7721 cell proliferation compared with Comparative Example 2 or 3 ([5]; mixtures of Example 1 and Comparative Example 1 at 4:1 or 1:1, FIGS. 2A-B): higher
- Percentage (%) of inhibition of cancer growth [2, 14]: 25.06%
- Percentage (%) of inhibition of cancer growth [2, 15]: 40.36%
- Percentage (%) of inhibition of cancer growth [2, 16]: 41.50%
- Percentage (%) of inhibition of cancer growth [2, 17]: 51.42%
- Percentage (%) of inhibition of cancer growth [2, 18]: 3.36%
- Percentage (%) of inhibition of cancer growth [2, 19]: 24.23%
- Percentage (%) of inhibition of cancer growth [2, 20]: 41.54%
- Percentage (%) of inhibition of cancer growth [2, 21]: 45.52%
- Cancer volume according to number of days of administration [3, 14]: 168.09 mm^3
- Cancer volume according to number of days of administration [3, 15]: 238.22 mm^3
- Cancer volume according to number of days of administration [3, 16]: 388.85 mm^3
- Cancer volume according to number of days of administration [3, 17]: 880.55 mm^3
- Cancer volume according to number of days of administration [3, 18]: 216.75 mm^3
- Cancer volume according to number of days of administration [3, 19]: 302.66 mm^3
- Cancer volume according to number of days of administration [3, 20]: 388.56 mm^3
- Cancer volume according to number of days of administration [3, 21]: 987.61 mm^3
